Laboratory results: publication PMC11364019, “Capturing the blue-light activated state of the Phot-LOV1 domain from Chlamydomonas reinhardtii using time-resolved serial synchrotron crystallography” (IUCrJ, 2024)

Biological target: T1, CrPhotLOV1 (Chlamydomonas reinhardtii, UniProt Q8LPD9)
T1 construct: gene PHOT; LOV1 domain, residues 16-133; N-terminal His-tag (pET16b) removed by limited trypsin proteolysis; expressed in E. coli BL21 DE3
T1 sequence (Q8LPD9 16-133): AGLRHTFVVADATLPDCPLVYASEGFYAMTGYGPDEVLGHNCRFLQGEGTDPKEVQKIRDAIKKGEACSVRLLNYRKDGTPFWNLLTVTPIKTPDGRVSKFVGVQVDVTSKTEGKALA
Experiment: X-ray crystallography (cryo, serial and time-resolved serial synchrotron); FTIR difference spectroscopy on crystals
Assay type: binding
Settings: dark state: non-covalent; after blue light: covalent thioether adduct of Cys57 S-gamma to FMN C4a; crystals at pH 6.5; 100 K and room temperature

SMILES: Cc1cc2nc3c(=O)[nH]c(=O)nc-3n(C[C@H](O)[C@H](O)[C@H](O)COP(=O)(O)O)c2cc1C [FMN, flavin mononucleotide]
- X-ray crystallography (cryo, serial and time-resolved serial synchrotron); FTIR: light-induced formation of the thioether covalent adduct
